From publication PMC8280143, “A novel dephosphorylation targeting chimera selectively promoting tau removal in tauopathies” (Signal Transduction and Targeted Therapy, 2021)
Entries after “also recorded” stand apart in the source; their conditions may differ.

Key:
[1] = tested on: Tau368 mice; experiment: Morris water maze test; format: in vivo, mouse
Excerpt: Morris water maze tests began 3 days after the novel-object recognition tests. Briefly, mice were trained to find a hidden platform submerged under water in a Morris water maze (1.2 m in diameter) for five consecutive days with three trials per day. Visual cues outside the pool remained constant. In each trial, mice were pseudorandomly placed, facing the pool wall, in one of the three quadrants without platform and allowed to freely seek the hidden platform within 60 s. […] The traveling path of each mouse was recorded and analyzed online using an MWZ-100 video-tracking system (Techman, China). At day 6, each mouse was tested for 60 s in the water maze with the hidden platform removed. Videos were recorded using recorded and time of mice stayed in, and number of entries into the target quadrant previously place the platform were analyzed using MWZ-100 and ANY-maze video tracking system (Stoelting).

[2] = tested on: human tau (hTau); experiment: Western blotting of phospho-tau and total tau in primary neurons with hTau overexpression; format: cell-based
Protocol: Lentivirus LV-EF1α-hTau-GFP (3.50E+8 vg/mL) was packaged by OBiO (Shanghai, China) and used for hTau-overexpression (fused with GFP) in cultured primary rat neurons. AAV-CaMKIIα-Cre (diluted to 5.21E + 07 vg/mL) and AAV-EF1α-DIO-mCherry (3.24E + 12 vg/mL) were obtained from BrainVTA (Wuhan, China) and co-injected (1:1 vol/vol) for sparse labeling of dorsal DG neurons. Doxycycline was purchased from Energy Chemical (Shanghai, China). Rabbit polyclonal DEPTAC antibody was prepared by Daian Biotechnology (Wuhan, China). All other reagents including MG132 were purchased from Sigma-Aldrich (USA), unless otherwise specified.
Primary hippocampal neurons were prepared from E12–E15 days SD rat embryos. Briefly, pregnant rats were acutely executed, hippocampus was dissected on ice and gently minced in DME/F12 (Hyclone) then suspended in 0.125% (vol/vol) trypsin solution at 37 °C for 20 min. Enzymatic activity was stopped by fetal bovine serum. Neurons were initially kept in 10% FBS-containing DME/F12 for 4–6 h, and subsequently cultured in Neurobasal (Hyclone) with 2% B27, 1% glutamax and 1% penicillin–streptomycin (Thermo Fisher Scientific) in dishes pre-coated with 100 μg/mL poly-D-lysine. Serum was gradually removed by replacing half of the medium for each time within the following 2 days. Especially, to inhibit the proteasome-dependent proteolysis, the cultured hippocampal neurons were treated with 5 μM MG132 for 5 h before harvest.
Cultured cells or hippocampus tissues were collected on ice, and homogenized with RIPA lysis buffer containing 50 mM Tris-HCl, 100 mM NaCl, 1% Triton X-100, 5 mM EDTA, and 1:100 PMSF, and then centrifuged at 12,000 × g for 20 min. The supernatant was collected for the analysis of soluble proteins. In some experiments, the pellets were further incubated with 8% SDS buffer at 37 °C and then ultrasound for 60 times to reach a complete resuspension for the analysis of insoluble tau. Protein concentration was measured through BCA assays (Thermo Fisher). Equal amount of protein from each sample were separated in SDS-PAGE gels, and then transferred onto nitrocellulose or 0.22 μm polyvinylidene fluoride membranes (Merck Millipore). The membranes were blocked with 5% BSA, and incubated in turn with primary and horseradish peroxidase-conjugated secondary antibodies: pS199-Tau (44734G, Invitrogen, 1:2000), pT205-Tau (11108-1, Signalway, 1:2000), pS396-Tau (11102, Signalway, 1:2000), pS404-Tau (11112, Signalway, 1:2000), AT8 (MN1020, Thermo Fisher, 1:1000), Tau5 (ab80579, Abcam, 1:1000), Tau46 (T9450, Sigma, 1:1000), PP2A-Bα (4953, Cell signaling, 1:1000), Phospho-Ser/Thr (ab17464, Abcam1:1000), Ubiquitin (ab7254, Abcam, 1:1000), MAP2 (AB5622, Millipore, 1:2000), hTau-N368 (a generous gift from Prof. Keqiang Ye, Emory University School of Medicine, 1:1000), DEPTAC (developed by Daian Biotechnology, Wuhan, China, 1:500), β-actin (ab6276, Abcam, 1:2000). HRP-conjugated goat anti-rabbit IgG (A0208, Beyotime, 1:3000), HRP-conjugated goat anti-mouse IgG (A0216, Beyotime, 1:3000). Blots were visualized using ECL luminol reagent (P0018FS, Beyotime), and quantified using ImageJ software.

[3] = tested on: dentate granular cells of Tau368 mice; experiment: Sholl analysis of dendrite complexity; format: in vivo, mouse
Protocol: For 2-month male C57BL/6 mice, 10 mM FITC-labeled or unlabeled-DEPTAC were directly injected through the tail vein or lateral ventricle for the evaluation of BBB-penetrability. For 9-month 3×Tg AD mice or Tau368 (20–30 g body weight), unlabeled-DEPTAC (5 mM, 1 μL for each time) was delivered for once into the lateral ventricle through direct stereotaxic injection, or repeatedly administrated through guiding cannulas (RWD, Shenzhen, China) implanted into the lateral ventricle once every 3 days for a consecutive month to test its dephosphorylation efficiency. Mice were restricted in a custom designed device and stayed awake during drug administration, and sacrificed at 24 h post the single or last DEPTAC administration.
A total volume of 0.3 μL mixture of AAV-CaMKIIα-Cre (5.21E+07) and AAV-EF1α-DIO-mCherry (3.24E+12) (1:1 vol/vol) was stereotaxically injected into the dDG of Tau368 mice 1 month following the beginning of dox or normal drinking water administration. Dox was stopped 1-month post AAVs injection, and DEPTAC were delivered through lateral ventricle for a consecutive month. Behavioral tests were performed after the DEPTAC administration, and mice were killed after behavioral tests. Hippocampal sections of 60 μm were obtained, and fluorescent images were taken by a two-photon laser-scanning confocal microscope (LSM710, Zeiss). The dendrite complexity of granular cells in the dorsal dentate gyrus was evaluated by Sholl analysis using Simple Neurite Tracer plugin and ImageJ (Fiji) software. Dendrite spine density and the averaged area of mossy fiber punctas were evaluated using ImageJ by an experimenter blinded from mice groupings. It should be noted that the fluorescence-labeled mossy fibers assembled densely in the CA3 subset, the main target area of mossy fiber axon terminals, making it difficult to accurately measure the puncta areas (data not shown). Therefore, we chose the hilus of DG subset for the measurement, which we believe should be also valid to indicate the axon plasticity of DG granular cells.

[4] = dox-treated Tau368 mice, day 6, platform removed, *p < 0.05
[5] = primary rat hippocampal neurons, hTau overexpression
[6] = primary rat neurons, lentivirus-mediated hTau overexpression, dose- and time-dependent, *p < 0.01, n = 3

## (1) YQQYQDATADEQG, originates from the porcine β-tubulin 422–434 for recognizing and binding tau proteins.[5],[6] (2) GSGS, a linker for increasing the flexibility of the peptide.[15] (3) KKVAVVRTPPKSP, for recruiting PP2A-Bα,[16] and (4) RRRRRRRR [DEPTAC, DEPhosphorylation TArgeting Chimera; 38 amino acid residues, C185H314N72O56]
[1]; control mice without human tau accumulation (NW)
  spatial learning and memory in control mice: only limitedly affected; also recorded: did not statistically change
[1]; dox-treated Tau368 mice, **p < 0.01, *p < 0.05
  spatial learning deficit in Morris water maze: rescued; also recorded: significantly alleviated
[1]; dox-treated Tau368 mice, day 6, platform removed
  spatial memory impairment in Morris water maze: rescued; also recorded: attenuated
[1]; [4]
  number of entries into the target quadrant: increased
  time staying in the target quadrant: increased
[2]; discussion, only effective above
  effective concentration of DEPTAC: > 200 µM
[2]; discussion, only effective within
  effective time window post-administration: ≤ 3 days
[2]; [5]
  concentration of most significant reduction of phospho-tau: 200 to 300 µM
  time post administration of most significant reduction of phospho-tau: ≤ 3 days
[2]; [6]
  tau phosphorylation at AT8 (Ser199/Ser202/Thr205) epitope: downregulated; also recorded: promoted tau dephosphorylation
  tau phosphorylation at pS199: downregulated; also recorded: promoted tau dephosphorylation
  tau phosphorylation at pS396: downregulated; also recorded: promoted tau dephosphorylation
  tau phosphorylation at pS404: downregulated; also recorded: promoted tau dephosphorylation
  tau phosphorylation at pT205: downregulated; also recorded: promoted tau dephosphorylation
  total tau probed by Tau5 antibody: reduction of total tau; also recorded: reduced total tau
[3]; NW-treated Tau368 mice, n = 3~5 mice, 12~22 neurons
  dendrite complexity, NW-treated: did not statistically change; also recorded: no statistically significant change
[3]; control mice without human tau accumulation
  neurite differentiation in control mice: did not statistically change
[3]; dox-treated Tau368 mice, n = 3~5 mice, 12~22 neurons
  dendrite complexity, dox-treated: did not statistically change; also recorded: no statistically significant change
